{"source": "patent US11369617B2", "about": "“Prostacyclin analogue formulations” (CAMURUS AB, priority 2016, dated 2022)", "origin": "cited, not measured here", "conditions": "regular s.c. administration", "data": [{"compound": "CCCCC[C@H](O)CC[C@@H]1[C@H]2Cc3cccc(OCC(=O)O)c3C[C@H]2C[C@H]1O", "note": "[treprostinil]", "values": [{"measurement": "administration-site pain, patients experiencing it", "result": "85 % of patients"}, {"measurement": "withdrawals due to adverse events", "setting": "almost all due to site pain", "result": "23 % of the long-term study population"}]}]}
